Measurements as given in paper PMC11855827, “High-Throughput Screening of Five Compound Libraries for Anthelmintic Activity and Toxicity Leads to the Discovery of Two Flavonoid Compounds” (International Journal of Molecular Sciences, 2025).
Values joined by “and” are separate entries in the source; they are usually repeats but may differ in a detail not shown here. Equal entries are not always repeated. Where two headings read alike, the source gives them in different places. Where no end group is shown, it is not given here.

Assays:
C. elegans [1] = experiment: microbe, parasite or virus in culture; conditions: Caenorhabditis elegans
C. elegans [2] = tested on: C. elegans
[3] = 0 h, read-out: Percentage of motility inhibition 0 h, Table S2, C. elegans SS assay, 110 μM, 0 h, averages of 4 data points
[4] = 24 h, read-out: Percentage of motility inhibition 24 h, Table S2, C. elegans SS assay, 110 μM, 24 h, averages of 4 data points
[5] = Table S2, C. elegans SS assay, 110 μM, 0 h, averages of 4 data points
[6] = Table S2, C. elegans SS assay, 110 μM, 24 h, averages of 4 data points

Compound	Percentage of motility inhibition 0 h (C. elegans [2]; [5]) [%]	Percentage of motility inhibition 24 h (C. elegans [2]; [6])	also measured
CC=CC(=O)N(CC)c1ccccc1C (mixture of isomers) [Crotamiton]			inhibition at 110 µM (C. elegans [1]; [3]): 23%; inhibition at 110 µM (C. elegans [1]; [4]): 24%
OC[C@H]1O[C@@H](O[C@H]2[C@H](O)[C@@H](O)C(O)O[C@@H]2CO)[C@H](O)[C@@H](O)[C@H]1O (mixture of isomers) [Lactose]			inhibition at 110 µM (C. elegans [1]; 0 h, read-out: Percentage of motility inhibition 0 h): 54%; inhibition at 110 µM (C. elegans [1]; 24 h, read-out: Percentage of motility inhibition 24 h): 10%
C=CC(C)(O)CCC=C(C)CCC=C(C)C (mixture of isomers) [Nerolidol]			inhibition at 110 µM (C. elegans [1]; [3]): 7%; inhibition at 110 µM (C. elegans [1]; [4]): 7%
COc1ccc([C@@H](O)CNC(=O)/C=C/c2ccccc2)cc1 (racemic) [Aegeline]			inhibition at 110 µM (C. elegans [1]; [3]): 4%; inhibition at 110 µM (C. elegans [1]; [4]): 6%
CSCCC(N)C(=O)O (racemic) [DL-Methionine]			inhibition at 110 µM (C. elegans [1]; [3]): 6%; inhibition at 110 µM (C. elegans [1]; [4]): 2%
O=c1ncnc2n([C@H]3O[C@@H](CO)[C@H](O)[C@@H]3O)[nH]cc1-2 (stereo in doubt) [Allopurinol riboside]			inhibition at 110 µM (C. elegans [1]; [3]): 0%; inhibition at 110 µM (C. elegans [1]; [4]): 0%
COc1cc(OC)cc(OC)c1 [1,3,5‐Trimethoxybenzene]			inhibition at 110 µM (C. elegans [1]; [3]): 1%; inhibition at 110 µM (C. elegans [1]; [4]): 25%
Cucurbitacin B	5	0%	
Cycleanine	4	4%	
Dictamine			Percentage of motility inhibition 0 h (C. elegans [2]; 110 µM): 0%; Percentage of motility inhibition 24 h (C. elegans [2]; 110 µM): 20%
Diniconazole	19	5%	
Dryocrassin ABBA	12	18%	
Echinocystic acid	45	35%	
Enfuvirtide			Percentage of motility inhibition 0 h (C. elegans [2]; 0 h, 110 μM): 36%; Percentage of motility inhibition 24 h (C. elegans [2]; 24 h, 110 µM): 30%
Engeletin	11	9%	
Epimedin A	13	13%	
Eprinomectin [reference compound]	96	86%	Inhibition (%) 110 μM (0 h) (C. elegans [2]): 91 ± 3%; Inhibition (%) 110 μM (24 h) (C. elegans [2]): 92 ± 3%
Escin		8% and 6%	
Evocarpine	8	20%	
Evodiamine	0	23%	
Ginkgolide B	4	7%	
Ginkgolide C	12	0%	
Ginkgolide J	0	25%	
Gypsogenin-3-O-glucuronide	50	10%	

Compound	Percentage of motility inhibition 0 h (C. elegans [2]; [5]) [%]	Percentage of motility inhibition 24 h (C. elegans [2]; [6])	also measured
Handelin	0	14%	
Harpagide	9	13%	
Hosenkoside C	0	5%	
Hyaluronic acid	0	4%	
Hydrastinine (hydrochloride)	7	0%	
Hydroxysafflor yellow A			Percentage of motility inhibition 0 h (C. elegans [2]; 110 µM): 36%; Percentage of motility inhibition 24 h (C. elegans [2]; 110 µM): 12%
Ingenol-5,20-acetonide	4	6%	
Inulin	4	17%	
Isoliquiritin apioside	47	8%	
Kansuiphorin C	5	29%	
Kukoamine B	8	0%	
Larixyl acetate	0	44%	
Liensinine (Diperchlorate)	0	0%	
Liensinine (perchlorate)	7	0%	
Madecassoside	12	1%	
Milbemycin [reference compound]			Inhibition (%) 110 μM (0 h) (C. elegans [2]): 100 ± 0%; Inhibition (%) 110 μM (24 h) (C. elegans [2]): 86 ± 14%
Miquelianin	1	0%	
Mogroside II-A	0	14%	
Mogroside IIA1	6	47%	
Neoline	21	1%	
Nordihydrocapsaicin			Percentage of motility inhibition 0 h (C. elegans [2]; 110 µM): 0%; Percentage of motility inhibition 24 h (C. elegans [2]; 110 µM): 4%
Notoginsenoside Fe	0	0%	
Oxypaeoniflorin	0	0%	
Penitrem A	0	14%	

Compound	Percentage of motility inhibition 0 h (C. elegans [2]; [5]) [%]	Percentage of motility inhibition 24 h (C. elegans [2]; [6])	also measured
Phillyrin	0	0%	
Phytol	13	5%	
Protopine	0	0%	
Pseudoginsenoside F11	0	22%	
RKDVY [Thymopentin (acetate)]			Percentage of motility inhibition 0 h (C. elegans [2]; 0 h, 110 μM): 4%; Percentage of motility inhibition 24 h (C. elegans [2]; 24 h, 110 µM): 4%
RKDVY [Thymopentin]			Percentage of motility inhibition 0 h (C. elegans [2]; 0 h, 110 μM): 36%; Percentage of motility inhibition 24 h (C. elegans [2]; 24 h, 110 µM): 3%
Rebaudioside B	6	1%	
Rebaudioside C	0	6%	
Retrorsine	28	9%	
SN‐38	34	3%	
Schaftoside	0	3%	
Strictosamide	0	9%	
Tannic acid	3	15%	
Tarasaponin VI	0	0%	
Teicoplanin	3	9%	
Theaflavin 3,3'‐digallate	0	2%	
Theaflavin‐3'‐gallate	9	0%	
Trigonelline (chloride)			Percentage of motility inhibition 0 h (C. elegans [2]; 110 µM): 2%; Percentage of motility inhibition 24 h (C. elegans [2]; 110 µM): 17%
Tubeimoside I	3	0%	
Valepotriate	0	7%	
Vitamin B12	34	0%	
Vitamin K	0	15%	
Xanthopterin (hydrate)	5	0%	
